According to patent US20260198495A1, “BINARY INSECTICIDE COMPOSITION AND USE THEREOF” (SHENYANG SINOCHEM AGROCHEMICALS R & D CO., LTD., priority 2022, published 2026):

Legend:
Format in all cases: in vivo
[1] = system: 3rd-instar larvae of Pyrausta nubilalis Hubern; test: Synergism assay (Bliss) of I-72 + cartap, monosultap, bisultap, Example 5, Table 5; details: Ostrinia nubilalis, 72 h, read-out: Mortality rate (%)
Experimental: Test subject: 3rd-instar larvae of Pyrausta nubilalis Hubern, a sensitive strain reared indoors.
Test conditions: temperature: 24-26° C., humidity: RH 60%, and illumination: L:D=14:10
Preparation method: the test pesticides were accurately weighed respectively with an electronic analytical balance. After the two technical materials were respectively added into an appropriate amount of solvent and completely dissolved, the stock solution of the required concentration was prepared with water containing 0.1% Tween 80. The stock solutions of the two active ingredients were mixed in a certain ratio to prepare a mixed solution, which was then diluted respectively into a series of pesticide solutions with a certain concentration gradient according to the experimental design dosage.
Experimental method: the artificial diet-pesticide film method was adopted. A standard clean 24-well culture plate was selected. 1 ml of artificial diet was added to each well. After the diet cooled and solidified, a quantitative amount of a pesticide solution was added to the culture plate using a continuous sampler, and then it was air-dried naturally in the shade. The standard test insects were introduced, with 1 insect in each well, a total of 48 insects. The treated test insects were placed in an observation room under certain conditions. The reaction of the test insects was regularly observed, and the number of dead and live insects was investigated 72 h later.
The evaluation method adopted was the Bliss method. This method is applicable to the qualitative screening of insecticidal compositions. According to the concept of independent joint action he proposed, Bliss believes that the theoretical mortality rate P when insecticides are used in combination can be calculated by the following formula: […]
Pm is the mortality rate (%) of the target when the first active ingredient is at a concentration of m; and Pn is the mortality rate (%) of the target when the second active ingredient is at a concentration of n.
If the actual mortality rate of the target after the two active ingredients are mixed at a certain concentration is greater than theoretical mortality rate P, it is determined that the two active ingredients have a synergistic effect when used in combination at the set concentration, and otherwise, they have an antagonistic effect.

[2] = system: Bemisia tabaci (Gennadius) nymphs; test: Joint toxicity of I-72 + organophosphorus insecticides, cotton leaf-disk spraying, Example 18, Table 18; details: nymphs, cotton leaf-disk spraying, 96 h, A = compound I-72, B = acephate, read-out: LC50
Experimental: Test target: Bemisia tabaci (Gennadius) nymphs.
(§1) Preparation of the pesticide solution: according to different test requirements, the test samples were accurately weighed respectively with an electronic analytical balance. The technical pesticides were dissolved in acetone, and then diluted with 0.1% Tween 80 water into a series of pesticide solutions with a certain concentration gradient according to the experimental design dosage.
Experimental method: first, cotton leaves with neat and consistent Bemisia tabaci (Gennadius) nymphs were selected and made into leaf disks, with about 20 insects on each leaf disk. Then, they were evenly sprayed with the pesticide solution in the order from low dosage to high dosage according to the experimental design, with 1.5 mL for each leaf and 3 replicates for each treatment. In addition, a blank control was set up.
The treated test materials were placed in an observation room, and the temperature, humidity and illumination of the observation room could be adjusted as needed. The number of dead and live insects was investigated 96 hours later. The corrected mortality rate was calculated using the Abbott's formula, and statistical analysis was performed with the DPS data processing software to obtain the toxicity regression equation, LC50 value and 95% confidence limit of each single test pesticide and each mixture of different ratios. Then, the co-toxicity coefficient of each ratio was calculated using the Sun Y-P method to evaluate the mixing effect (the same as in Example 1).

[3] = system: 2nd-instar larvae of Chilo suppressalis (Walker); test: Joint toxicity of I-72 + carbaryl, rice stalk spraying, Example 23, Table 23
Source text: In addition, a blank control was set up.
The treated test materials were placed in an observation room, and the temperature, humidity and illumination of the observation room could be adjusted as needed.

Pyrrhalta aenescens = test: Joint toxicity of I-72 + fenobucarb, insect-dipping, Example 24, Table 24; details: A = compound I-72, B = fenobucarb, insect-dipping, 24 hours, read-out: LC50
Experimental: Test target: Pyrrhalta aenescens, a strain reared indoors.
Experimental method: the insect-dipping method was adopted. Pyrrhalta aenescens of the same size were selected, put into an insect-dipping cage, and evenly […] the pesticide solution in the order from low dosage to high dosage according to the experimental design, with dipping for 10 s for each treatment. They were placed in a 9-cm-diameter Petri dish with filter paper. After natural air-drying in the shade, feed was added, with 3 replicates for each treatment. In addition, a blank control was set up.
The treated test materials were placed in an observation room. The total number of test insects and the number of dead insects were investigated 24 hours later. The temperature, humidity and illumination of the observation room could be adjusted as needed. The test conditions, the preparation of the pesticide solution and the evaluation method were the same as those in Example 1.

[4] = system: adult Bemisia tabaci (Gennadius); test: Joint toxicity of I-72 + pyraclostrobin, cotton seedling spraying, Example 83, Table 83; details: A = compound I-72, B = pyraclostrobin, cotton seedling spraying, 72 hours, read-out: LC50
Experimental: as §1
The corrected mortality rate was calculated using the Abbott's formula, and statistical analysis was performed with the DPS data processing software to obtain the toxicity regression equation and LC50 value of each single test pesticide and each mixture of different ratios.

[5] = system: adult Tetranychus urticae Koch; test: Joint toxicity of I-72 + cyetpyrafen, Example 85, Table 85; details: Tetranychus urticae; A = compound I72, B = cyetpyrafen; potted-seedling spraying; 72 hours; read-out: LC50
Experimental: Test target: adult Tetranychus urticae Koch, a sensitive strain reared indoors.
as §1
Experimental method: the activity of the mixture against the adult Tetranychus urticae Koch was determined by adopting the potted-seedling spraying method. First, the adult Tetranychus urticae Koch of uniform size were transferred onto the leaves of kidney bean seedlings at the stage when the first pair of true leaves was fully expanded. After the adult mites had stabilized, the base number was counted. Then, the uniform spraying was performed with the pesticide solution in the order from low to high dose according to the experimental design, with 1.5 mL for each seedling and 3 replicates for each treatment. […]
The treated test materials were placed in an observation room, and the temperature, humidity and illumination of the observation room could be adjusted as needed. […] Then, the co-toxicity coefficient of each ratio was calculated using the Sun Y-P method to evaluate the mixing effect (the same as in Example 1).

SMILES: CN(C(=O)c1ccc2c(c1)OC(F)(F)O2)c1cccc(C(=O)Nc2c(Br)cc(C(F)(C(F)(F)F)C(F)(F)F)cc2OC(F)F)c1F [Compound I-72]
- mortality at 0.1 µg/mL ([1]; single agent 0.1 mg/L): 22.9%
- mortality at 0.5 µg/mL ([1]; single agent 0.5 mg/L): 41.7%
- mortality at 1 µg/mL ([1]; single agent 1 mg/L): 60.4%
- mortality at 2 µg/mL ([1]; single agent 2 mg/L): 70.8%
- mortality at 5 µg/mL ([1]; single agent 5 mg/L): 87.5%
- LC50 [2]: 5.05 µg/mL
- LC50 [3]: 0.881 µg/mL
- LC50 (Pyrrhalta aenescens): 1.33 µg/mL
- LC50 [4]: 4.02 µg/mL
- LC50 [5]: 40.4 µg/mL
